According to US8962600B2, “Neuroprotective compounds and their use” (The Medical College of Wisconsin, Inc., priority 2009, dated 2015):

System: NOS2
Experiment: LPS-induced NOS2 protein expression in BV2 cells, Western blot
Assay type: cell-based, mouse
Settings: diapocynin 10 μM 30 min pretreatment, LPS 1 μg/ml 24 hr, back to basal level or below
Method: Two cell models of neuroinflammation were used to evaluate the anti-neuroinflammatory property of diapocynin including the mouse BV2 microglial cell line, as well as primary microglia isolated from mouse brains. BV2 cells were obtained from the American Tissue Culture Collection. BV2 cells were maintained in RPMI containing 10% FBS and 100 units of pen/strep at 37° C. and 5% CO2. For treatments, RPMI containing 2% FBS and 100 units of pen/strep was used.
BV2 cell lysates containing equal amounts of protein were loaded in each lane and separated on a 10% SDS-PAGE gel. After separation, the protein was transferred to a nitrocellulose membrane. Non-specific binding sites were blocked with Li-cor blocking buffer for 45 min. The membranes were then treated with primary antibodies directed against NOS2 (mouse monoclonal 1:200) and p67phox (rabbit polyclonal 1:200). To confirm equal amounts of protein were loaded, membranes were also probed for β-actin with a β-actin antibody (dilution of 1:10,000). Secondary antibodies, donkey anti-mouse (Invitrogen) and conjugated anti-rabbit IgG (Rockland), were used at a dilution of 1:10,000 for 1 hr at room temperature. The membranes were imaged and captured using a Li-COR Odyssey infrared imaging system and software.

SMILES: COc1cc(C(C)=O)cc(-c2cc(C(C)=O)cc(OC)c2O)c1O [diapocynin]
- reducing LPS-induced NOS2 protein expression: extremely effective
